Activity calls are given as the source filed them. The calls are words filed in the database; no cut-off is given here.
Key:
Nucleic Acid [1] = test: Binding affinity to duplex DG DNA at 0.75 uM by fluorescence emission spectral analysis; type: nucleic-acid assay
Nucleic Acid [2] = test: Binding affinity to duplex DA DNA in 0.02 M cacodylate buffer assessed as change in melting temperature at 10 uM at pH 7 by UV spectrophotometer analysis; type: nucleic-acid assay
Nucleic Acid [3] = test: Binding affinity to duplex DA DNA in 0.02 M cacodylate buffer assessed as change in melting temperature at 10 uM at pH 7 by UV spectrophotometer analysis in presence of 0.1 M sodium chloride; type: nucleic-acid assay
Nucleic Acid [4] = test: Binding affinity to duplex DG DNA in 0.02 M cacodylate buffer assessed as melting temperature at 10 uM at pH 7 by UV spectrophotometer analysis; type: nucleic-acid assay
A-427 = test: Cytotoxicity against human A427 cells after 92 hrs by microtiter assay; type: functional, cell-based; details: A-427, 92 h
DAN-G = test: Cytotoxicity against human DAN-G cells after 92 hrs by microtiter assay; type: functional, cell-based
Nucleic Acid [5] = test: Binding affinity to duplex DA DNA in 0.02 M cacodylate buffer assessed as melting temperature at 10 uM at pH 7 by UV spectrophotometer analysis in presence of 0.1 M sodium chloride; type: nucleic-acid assay
Nucleic Acid [6] = test: Binding affinity to duplex DG DNA in 0.02 M cacodylate buffer assessed as change in melting temperature at 10 uM at pH 7 by UV spectrophotometer analysis in presence of 0.1 M sodium chloride; type: nucleic-acid assay
[7] = Cytotoxicity against human LCLC-103H cells after 92 hrs by microtiter assay; type: functional, cell-based
Nucleic Acid [8] = test: Binding affinity to duplex DM DNA in 0.02 M cacodylate buffer assessed as melting temperature at 10 uM at pH 7 by UV spectrophotometer analysis in presence of 0.1 M sodium chloride; type: nucleic-acid assay
MCF7 = test: Cytotoxicity against human MCF7 cells after 92 hrs by microtiter assay; type: functional, cell-based; details: MCF7, 92 h
Nucleic Acid [9] = test: Displacement of ethidium bromide from duplex DG DNA after 5 mins; type: nucleic-acid assay
Nucleic Acid [10] = test: Binding affinity to duplex DG DNA in 0.02 M cacodylate buffer assessed as change in melting temperature at 10 uM at pH 7 by UV spectrophotometer analysis; type: nucleic-acid assay
Nucleic Acid [11] = test: Binding affinity to duplex DM DNA in 0.02 M cacodylate buffer assessed as change in melting temperature at 10 uM at pH 7 by UV spectrophotometer analysis in presence of 0.1 M sodium chloride; type: nucleic-acid assay
5637 = test: Cytotoxicity against human 5637 cells assessed after 92 hrs by microtiter assay; type: functional, cell-based; details: Homo sapiens, 5637, 92 h
Nucleic Acid [12] = test: Binding affinity to duplex DG DNA in 0.02 M cacodylate buffer assessed as melting temperature at 10 uM at pH 7 by UV spectrophotometer analysis in presence of 0.1 M sodium chloride; type: nucleic-acid assay
Nucleic Acid [13] = test: Binding affinity to duplex DM DNA in 0.02 M cacodylate buffer assessed as melting temperature at 10 uM at pH 7 by UV spectrophotometer analysis; type: nucleic-acid assay
Nucleic Acid [14] = test: Binding affinity to duplex DG DNA assessed as DNA intercalation by circular dichroism spectra analysis; type: nucleic-acid assay
Nucleic Acid [15] = test: Binding affinity to duplex DM DNA in 0.02 M cacodylate buffer assessed as change in melting temperature at 10 uM at pH 7 by UV spectrophotometer analysis; type: nucleic-acid assay
RT-4 = test: Cytotoxicity against human RT4 cells after 92 hrs by microtiter assay; type: functional, cell-based; details: RT-4, 92 h
Nucleic Acid [16] = test: Binding affinity to duplex DA DNA in 0.02 M cacodylate buffer assessed as melting temperature at 10 uM at pH 7 by UV spectrophotometer analysis; type: nucleic-acid assay

| SMILES | ΔTm (Nucleic Acid [2]) [°C] | ΔTm (Nucleic Acid [3]) [°C] | Tm (Nucleic Acid [4]) [°C] | IC50 (A-427) [µM] | IC50 (DAN-G) [µM] | Tm (Nucleic Acid [5]) [°C] | ΔTm (Nucleic Acid [6]) [°C] | IC50 [7] [µM] | Tm (Nucleic Acid [8]) [°C] | IC50 (MCF7) [µM] | ΔTm (Nucleic Acid [10]) [°C] | ΔTm (Nucleic Acid [11]) [°C] | IC50 5637 [µM] | Tm (Nucleic Acid [12]) [°C] | Tm (Nucleic Acid [13]) [°C] | ΔTm (Nucleic Acid [15]) [°C] | IC50 (RT-4) [µM] | Tm (Nucleic Acid [16]) [°C] | other results |
| --- | --- | --- | --- | --- | --- | --- | --- | --- | --- | --- | --- | --- | --- | --- | --- | --- | --- | --- | --- |
| COc1cccc2c(-c3ccc(C(=O)NCCN(C)C)cc3)c3[nH]c4c(OC)cccc4c3nc12 | 2.5 | 0.5 | 42.4 | 1.7 | 3.6 | 45.3 | -0.5 | 3.2 | 40.6 | 2.9 | 1.7 | 0.5 | 2.1 | 52 | 32.8 | 3.1 | 3.6 | 35.3 | Activity (Nucleic Acid [1]): Active; C50 (Nucleic Acid [9]): 93 µM; Activity (Nucleic Acid [14]): Active |
| Cc1cccc2c(-c3ccc(C(=O)NCCN(C)C)cc3)c3[nH]c4c(C)cccc4c3nc12 | 1.5 | 0.3 | 41.5 | 3.2 | 2.6 | 45.1 | -0.9 | 3.7 | 40.3 | 3 | 0.8 | 0.2 | 3.2 | 51.6 | 30.7 | 1 | 4.2 | 34.3 |  |
| COC(=O)c1ccc(-c2c3cccc(C)c3nc3c2[nH]c2c(C)cccc23)cc1 |  |  |  | > 20 | > 20 |  |  | > 20 |  | 13.8 |  |  | > 20 |  |  |  | > 20 |  |  |
| COC(=O)c1ccc(-c2c3cccc(OC)c3nc3c2[nH]c2c(OC)cccc23)cc1 |  |  |  | 16.6 | > 20 |  |  | > 20 |  | > 20 |  |  | 11 |  |  |  | > 20 |  |  |

Reference: ChEMBL document CHEMBL1759985, “In vitro anticancer activity and evaluation of DNA duplex binding affinity of phenyl-substituted indoloquinolines” (Bioorg Med Chem Lett, 2011)
